Reference: patent publication US20210222144A1, “SELECTIVE HYDRATION OF OLEIC ACID DERIVATIVES” (priority 2018, published 2021)

Experiments:
OhyA wild type (WT) = biological target: T1, OhyA wild type (WT) (Elizabethkingia meningoseptica, UniProt C7DLJ6); assay: Whole cell E. coli biotransformation, hydration of oleic acid and derivatives by OhyA wild type; assay type: cell-based; settings: whole cell E. coli biocatalyst, 2 mM substrate, 30° C., pH 6.0
T1 construct: His tag with TEV site by the vector name (HISTEV); expressed in transfected cells; host or cells: E. coli BL21 Star (DE3)
T1 sequence (C7DLJ6 whole entry): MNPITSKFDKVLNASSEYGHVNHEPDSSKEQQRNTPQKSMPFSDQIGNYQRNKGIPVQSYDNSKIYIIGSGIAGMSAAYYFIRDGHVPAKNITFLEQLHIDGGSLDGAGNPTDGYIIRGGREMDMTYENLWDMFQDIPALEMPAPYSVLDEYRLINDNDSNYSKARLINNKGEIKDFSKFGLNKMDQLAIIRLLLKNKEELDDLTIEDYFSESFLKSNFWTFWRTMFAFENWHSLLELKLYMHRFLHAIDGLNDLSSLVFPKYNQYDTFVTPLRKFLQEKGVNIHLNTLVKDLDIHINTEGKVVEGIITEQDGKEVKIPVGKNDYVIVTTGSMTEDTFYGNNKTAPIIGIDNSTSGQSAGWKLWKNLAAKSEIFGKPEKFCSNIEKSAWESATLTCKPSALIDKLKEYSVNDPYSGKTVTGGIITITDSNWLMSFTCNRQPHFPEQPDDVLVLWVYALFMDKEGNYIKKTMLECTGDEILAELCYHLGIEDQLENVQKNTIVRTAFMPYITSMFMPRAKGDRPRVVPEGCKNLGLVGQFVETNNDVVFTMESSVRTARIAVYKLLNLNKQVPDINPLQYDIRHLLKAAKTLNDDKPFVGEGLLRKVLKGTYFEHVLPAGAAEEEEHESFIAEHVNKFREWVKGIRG
Method: (§1) Free fatty acids were identified and analyzed by gas chromatography-mass spectrometry (GC-MS) and comparison of derived mass fragmentation spectra to authentic standards. A HP-5 column (crosslinked 5% Ph-Me Siloxane; 30 m length, 0.25 mm in diameter and 0.25 μm film thickness) on a Hewlett-Packard 6890 Series II GC equipped with a mass selective detector was used. Sample aliquots of 1 μL were injected in split mode (split ratio 30:1) at 240° C. injector temperature and 290° C. detector temperature with N2 as carrier at a flow rate set to 36 cm s^−1 in constant flow mode. The temperature program was as follows: 100° C. for 1 min, 15° C. min^−1 to 300° C., hold for 5 min. The total run time was 19.33 min. The mass selective detector was operated in a mass range of 50-400 amu at an electron multiplier voltage of 1765 V. Results were evaluated with the GC-MS Data Analysis software (Agilent Technologies, Austria).
(§2) OhyA was recombinantly expressed in E. coli. First, a pre-culture was inoculated with E. coli BL21 Star (DE3) cells harboring pMS470-HISTEV-OhyA wild type enzyme or variants, and was grown in LB supplemented with 100 μg mL^−1 ampicillin at 28° C. and 130 rpm overnight. Main cultures were inoculated to an OD600 of 0.1 in auto induction medium (AIM)—Terrific Broth Base including Trace elements (Formedium, UK) containing 100 μg mL^−1 ampicillin. Recombinant protein was expressed at 28° C. and 130 rpm for 22 h. Cells were harvested by centrifugation for 10 min at 4,400×g and 22° C. and were instantly used for whole cell biotransformation or were frozen at −20° C. until protein purification.
(§3) For bioconversion assays of oleic acid (OA) and OA derivatives, i.e. substrates (1) to (10), 50 OD600 units of thus prepared cells, which are corresponding to a cell dry weight of 50 mg, were resuspended in 50 mM HEPES, pH 6.0, supplemented with 100 mM glucose and 0.2 mM FAD in Pyrex® glass culture tubes (Corning, N.Y.). Biotransformation at 1 mL scale were started by adding substrate to a final concentration of 2 mM from an ethanolic stock solution (100 mM). n-pentadecanoic acid (1 mM) was used as internal standard. The reactions were conducted in the presence of 2% (v/v) of ethanol as co-solvent at 30° C. and shaking at 150 rpm at a defined angle of the Pyrex® tubes (55°). Biotransformation were performed for 22 h or 96 h. The assays were quenched by acidification to pH 2.0 with 0.12 M HCl, and fatty acid derivatives were extracted twice with 2 mL of ethyl acetate while agitating on a Vibrax VXR basic shaker (IKA, Germany) for 30 min. The suspension was centrifuged for 5 min at 2,900×g and 22° C. to improve the separation of the phases. Combined organic phases were concentrated under a N2 stream. Fatty acid derivatives were silylated with 10 μL of pyridine and 50 μL of N,O-bis(trimethylsilyl)trifluoroacetamide (BSTFA). After incubation for 30 min at 500 rpm, extracts were diluted with 200 μL of ethyl acetate and analyzed by GC-MS. […]

[1] = biological target: oleate hydratase from Elizabethkingia meningoseptica (OhyA, EC 4.2.1.53) (Elizabethkingia meningoseptica, UniProt C7DLJ6); settings: wild-type OhyA, without co-factor recycling; cited from earlier work
oleate hydratase from Elizabethkingia meningoseptica (OhyA, EC 4.2.1.53), sequence (C7DLJ6 whole entry): as above

OhyA Q265A/T436A/N438A = biological target: T2, OhyA Q265A/T436A/N438A (Elizabethkingia meningoseptica, UniProt C7DLJ6, N438A/Q265A/T436A); assay: Whole cell E. coli biotransformation, hydration of oleic acid and derivatives by mutant OhyA Q265A/T436A/N438A; assay type: cell-based; settings: for e.e. of hydrated product: abs. conf. at C-10: R, table does not separate WT and mutant; for Apparent hydration activity normalized for biomass, OhyA Q265A/T436A/N438A: whole cell E. coli biocatalyst, 2 mM substrate, 30° C., pH 6.0; for relative hydration activity compared to wt-OhyA: OhyA Q265A/T436A/N438A versus wt-OhyA
T2 construct: His tag with TEV site by the vector name (HISTEV); expressed in transfected cells; host or cells: E. coli BL21 Star (DE3)
T2 sequence (C7DLJ6 whole entry Q265A/T436A/N438A): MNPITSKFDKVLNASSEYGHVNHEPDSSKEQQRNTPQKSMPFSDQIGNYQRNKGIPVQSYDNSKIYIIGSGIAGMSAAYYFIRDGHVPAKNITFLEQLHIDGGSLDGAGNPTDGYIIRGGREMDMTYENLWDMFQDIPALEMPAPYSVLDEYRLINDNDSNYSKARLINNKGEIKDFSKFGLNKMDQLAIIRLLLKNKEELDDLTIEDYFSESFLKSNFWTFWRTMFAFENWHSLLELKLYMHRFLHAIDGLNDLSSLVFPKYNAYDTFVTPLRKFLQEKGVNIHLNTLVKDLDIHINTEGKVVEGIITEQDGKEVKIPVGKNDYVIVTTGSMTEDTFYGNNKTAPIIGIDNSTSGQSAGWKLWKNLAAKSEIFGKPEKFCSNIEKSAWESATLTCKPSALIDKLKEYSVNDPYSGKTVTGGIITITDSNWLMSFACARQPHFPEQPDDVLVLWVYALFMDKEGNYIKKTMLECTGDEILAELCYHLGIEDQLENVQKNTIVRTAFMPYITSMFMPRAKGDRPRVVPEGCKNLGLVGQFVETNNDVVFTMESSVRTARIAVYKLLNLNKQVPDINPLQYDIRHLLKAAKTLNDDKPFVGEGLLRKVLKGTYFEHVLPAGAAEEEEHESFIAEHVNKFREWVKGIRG
Method: as §1, §2, §3

OhyA Q265A/N438A = biological target: T3, OhyA Q265A/N438A (Elizabethkingia meningoseptica, UniProt C7DLJ6, N438A/Q265A); assay: Bioconversion with modified OhyA variant Q265A/N438A; assay type: cell-based; settings: OhyA Q265A/N438A in bioconversions
T3 construct: His tag with TEV site by the vector name (HISTEV); expressed in transfected cells; host or cells: E. coli BL21 Star (DE3)
T3 sequence (C7DLJ6 whole entry Q265A/N438A): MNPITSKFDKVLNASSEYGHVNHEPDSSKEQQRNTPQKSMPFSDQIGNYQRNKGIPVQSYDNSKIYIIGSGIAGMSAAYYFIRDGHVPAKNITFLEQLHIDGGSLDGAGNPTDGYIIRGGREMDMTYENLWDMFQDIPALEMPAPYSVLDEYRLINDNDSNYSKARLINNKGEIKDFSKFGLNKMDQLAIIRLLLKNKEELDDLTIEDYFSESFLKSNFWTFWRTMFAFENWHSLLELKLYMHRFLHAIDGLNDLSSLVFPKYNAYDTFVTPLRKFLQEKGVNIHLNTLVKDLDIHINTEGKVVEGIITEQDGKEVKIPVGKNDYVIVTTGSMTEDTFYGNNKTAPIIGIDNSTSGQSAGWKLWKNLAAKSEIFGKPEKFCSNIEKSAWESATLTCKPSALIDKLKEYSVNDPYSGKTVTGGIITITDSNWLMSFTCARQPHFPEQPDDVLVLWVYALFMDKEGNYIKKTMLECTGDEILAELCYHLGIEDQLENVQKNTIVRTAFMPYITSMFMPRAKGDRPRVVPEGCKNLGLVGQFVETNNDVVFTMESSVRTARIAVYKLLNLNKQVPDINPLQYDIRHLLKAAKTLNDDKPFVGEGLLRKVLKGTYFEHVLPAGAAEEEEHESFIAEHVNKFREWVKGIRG
Method: as §2
For bioconversion assays of oleic acid (OA) and OA derivatives, i.e. substrates (1) to (10), 50 OD600 units of thus prepared cells, which are corresponding to a cell dry weight of 50 mg, were resuspended in 50 mM HEPES, pH 6.0, supplemented with 100 mM glucose and 0.2 mM FAD in Pyrex® glass culture tubes (Corning, N.Y.). Biotransformation at 1 mL scale were started by adding substrate to a final concentration of 2 mM from an ethanolic stock solution (100 mM). n-pentadecanoic acid (1 mM) was used as internal standard. […] After incubation for 30 min at 500 rpm, extracts were diluted with 200 μL of ethyl acetate and analyzed by GC-MS.

[2] = biological target: T4, mutant OhyA Q265A/T436A/N438A (Elizabethkingia meningoseptica, UniProt C7DLJ6, N438A/Q265A/T436A); assay: Anaerobic in vitro hydration with purified OhyA after reduction of the FAD cofactor; assay type: biochemical; settings: purified enzyme, reduced FAD, overnight incubation, wt-OhyA compared with mutant
T4 construct: His tag with TEV site by the vector name (HISTEV); made in house; host or cells: E. coli BL21 Star (DE3)
T4 sequence (C7DLJ6 whole entry Q265A/T436A/N438A): as the sequence (C7DLJ6 whole entry Q265A/T436A/N438A) above
Method: For purification of the recombinant OhyA, cell pellets were resuspended in 50 mM HEPES, pH 7.4, containing 10 mM imidazole. Cells were lysed by ultrasonication for 4 min with a Sonifier® 250 (Branson, Danbury, Conn.) setting the duty cycle to 80% and the output control to level 8. Cell free extract (CFE) was separated from the total cell lysate (TCL) by centrifugation for 35 min at 48,300×g and 4° C., and was filtered through 0.22 μm filters (Millipore, Bedford, Mass.) prior to loading it onto a pre-equilibrated self-packed Ni-NTA affinity chromatography column (GE Healthcare, United Kingdom). Prior to any further analyses, purified OhyA was incubated with a 10-fold molar excess of FAD over night at 4° C. Unbound FAD was removed from the protein aliquot by buffer exchange via PD-10 desalting columns (GE Healthcare, United Kingdom) according to the recommended protocol.
For reduction of the enzyme-bound flavin cofactor, wt-OhyA and mutant Q265A/T436A/N438A were diluted in 50 mM HEPES, pH 7.4, containing 50 mM NaCl, 5 mM EDTA, 1 μM 5-deazariboflavin and 4 μM methyl viologen to give an absorption of approximately 0.2 AU at 440 nm. The solution was transferred to a cuvette and oxygen was removed by incubation for at least 2 h in a glove box. Afterwards, the cofactor was reduced by anaerobic photoreduction or chemical reduction with dithiothreitol (DTT). […]

| SMILES | Apparent hydration activity normalized for biomass, OhyA WT (OhyA wild type (WT)) [mU g^−1 CDW] | enantiomeric excess (ee) of (R)-10-hydroxy stearic acid [1] | e.e. of hydrated product (OhyA Q265A/T436A/N438A) [%] | Apparent hydration activity normalized for biomass, OhyA Q265A/T436A/N438A (OhyA Q265A/T436A/N438A) [mU g^−1 CDW] | enhanced relative hydration activity (OhyA Q265A/N438A) | relative hydration activity compared to wt-OhyA (OhyA Q265A/T436A/N438A) | peak at the expected retention time of the hydrated product (GC-MS) [2] |
| --- | --- | --- | --- | --- | --- | --- | --- |
| CCCCCCCC/C=C\CCCCCCCC(=O)O [Entry 1, oleic acid] | 26.3 ± 0.2 | at least 98% | >99 | 28.4 ± 0.3 |  |  |  |
| CCCCCCCC/C=C\CCCCCCCCN [Entry 2, oleyl amine] |  |  | >99 |  |  |  |  |
| CCCCCCCC/C=C\CCCCCCCC(N)=O [Entry 3, oleamide] | 11.1 ± 0.7 |  | >99 | 10.7 ± 0.3 |  |  |  |
| CCCCCCCC/C=C\CCCCCCCC(=O)NO [Entry 4, N-hydroxy oleamide] | 3.4 ± 0.7 |  | >99 | 13.4 ± 2.5 | at least 5 fold | at least 5 fold |  |
| CCCCCCCC/C=C\CCCCCCCCO [Entry 5, oleyl alcohol] | 8.4 ± 2.1 |  | >99 | 15.5 ± 1.0 |  | at least 2 fold |  |
| CCCCCCCC/C=C\CCCCCCCC(=O)OC [Entry 6, methyl oleate] | 0.3 ± 0.1 |  | >99 | 2.5 ± 0.2 |  | 6 fold | only in the case of the variant |
| CCCCCCCC/C=C\CCCCCCCC(=O)OCC [Entry 7, ethyl oleate] | 0.2 ± 0.1 |  | >99 | 1.7 ± 0.1 |  | 6 fold |  |
| CCCCCCCC/C=C\CCCCCCCC(=O)OC(C)C [Entry 8, i-propyl oleate] | 0.1 ± 0.1 |  | >99 | 1.5 ± 0.1 |  |  |  |
| CCCCCCCC/C=C\CCCCCCCC(=O)OCCC [Entry 9, n-propyl oleate] | 0.2 ± 0.1 |  | >99 | 0.9 ± 0.1 |  | 20 fold |  |
| CCCCCCCC/C=C\CCCCCCCC(=O)OCCCC [Entry 10, n-butyl oleate] | 0.1 ± 0.1 |  | >99 | 0.8 ± 0.1 |  |  |  |
